Test results published in US20120021988A1, “METHODS FOR TREATING IMMUNE THROMBOCYTOPENIA” (priority 2007, published 2012).
Values joined by “and” are separate entries in the source; they are usually repeats but may differ in a detail not shown here. Equal entries are not always repeated.

What was measured:
mice having induced ITP = test: In vivo treatment of ITP induced by rabbit anti-platelet antibody, platelet counting by flow cytometry; design: species or system CD-1 mice; conditions: for Platelet counts, individual mice: intraperitoneal, 24 hours, listed as AP; for Platelet counts, mean: 3 mice, ITP alone mean 170.7, Nil 1016
Method: Mice: CD-1 mice approximately 6-8 weeks of age were obtained from Charles River (Montreal). The animals were housed 3-5 per cage in filter-topped cages. The temperature and relative humidity were maintained at […] and 35-70%, respectively, and a 12 hour light/dark cycle was used. The mice were fed rodent chow and water ad libitum.
Anti-platelet antibodies to induce ITP: A rabbit anti-platelet antibody (Inter-Cell Technologies, Inc., Jupiter, Fla.; Cat. No. A31440) was used to induce ITP. Each mouse received 10 μl antibody-containing serum, diluted with 190 μl PBS for injection, such that the final injection volume was 200 μl for all groups injected with anti-platelet antibody.
On the day of use, one vial of rabbit anti-platelet antibody was removed from the freezer, placed in a 22° C. water bath, and shaken. The tube was checked every 30 seconds, and when it was completely thawed it was placed in a microcentrifuge and centrifuged at 10,000×g (11,000 rpm) for 10 minutes at 4° C. The supernatant fluid was transferred to a new tube and the pellet was discarded. The supernatant was placed on ice until used or diluted, as appropriate. Unused portions of the sera were discarded.
Therapeutic treatment of ITP: IVIg was used as a standard control treatment for the ITP induced by the rabbit anti-platelet antibody. The IVIg was Gamimmune® N, 10%. Treatment with IVIg consisted of an intraperitoneal injection of 50 mg (500 μl) IVIg, a dose that was equivalent to a dose of 2,000 mg/kg body weight.
Platelet enumeration: All mice were bled via the saphenous vein. 50 μL of blood were collected into 450 μL PBS/1% EDTA. The blood was further diluted in PBS/1% EDTA. Platelets were enumerated by flow cytometry with a Guava microcapillary cytometer (Guava EasyCyteMini, Guava Technologies, Inc., Hayward, Calif.), using forward scatter (FSC) versus side scatter (SSC) to gate platelets.
Peptides used to inhibit ITP: Peptides having the amino acid sequences set forth in SEQ ID NO:2 ([…]), SEQ ID NO:20 ([…]), and a control peptide in which Trp7, Val13 and Trp14 of SEQ ID NO:20 were replaced by alanines ([…]; SEQ ID NO:57) were tested for their ability to inhibit ITP. Alanine substation of Val13 and Trp14 causes a decrease in binding affinity (measured by ΔΔG, where G=Gibbs Energy) of greater than 1,000 fold.
Peptides were stored at −20° C. until the day of use. On the day of use, peptides were removed from the freezer, placed in a 22° C. water bath, shaken, and checked every 30 seconds for thawing. When thawed, the peptides were placed on ice until use. For samples that received a 10× dose of peptide, the following were sequentially added to a 1.5 ml polypropylene Eppendorf tube: 623 μl PBS (pH 7.22), 35 μL rabbit anti-plaletet IgG, and 42 μl peptide, with mixing after each addition. For samples having a 100× dose of peptide, the following were added sequentially to a 1.5 ml polypropylene Eppendorf tube: 245 μl PBS (pH 7.22), 35 μL rabbit anti-plaletet IgG, and 420 μl peptide, with mixing after each addition. The peptides were incubated for at least 30 minutes at 22° C. prior to injection into mice. (A 15 minute incubation in the laboratory, transport of the mixtures to the Vivarium, and injection took roughly an additional 30 minutes.)
The final volume of each peptide mixture was 700 μL, which was sufficient for injection of 3 mice (200 μl/mouse, plus 100 μl to cover dead volume). For the 10× dose/mouse of peptide, 12 μg of peptide (12 μl of 1 mg/ml solution) was mixed with 100 μg of the rabbit anti-platelet IgG (10 μl of 10 mg/ml solution). The volume of 700 μl was about 3.5× the volume injected per mouse (200 μl). To obtain the dose of peptide and rabbit IgG for the 700 μl final volume, dose of peptide or Rabbit IgG per mouse was multiplied by 3.5 (e.g., 12 μl peptide/mouse×3.5=42 μl, 10 μl Rabbit IgG/mouse×3.5=35 μl). PBS (623 μl, pH 7.22) was added to make up the final volume 700 μl. […]

Fcγ1 = test: Repeated FcγR reverse ELISA with SEQ ID NO:20 (Table 3); format: binding
[1] = tested on: Fc receptor (FcγI, FcγIIa/FcγIIb, and FcγIII); test: FcγR reverse ELISA, overall statements on FcR binding to PAP immune complexes
Method: Once the reverse ELISA protocol was established using the C1q assay, the assay was redesigned using FcγIIa, FcγIIb and FcγIII in place of C1q. Highly purified FcγIIa, FcγIIb and FcγIII (R&D Systems, Minneapolis, Minn.) were immunoadsorbed onto plastic microwells. After optimizing the FcγR reverse ELISA system, simple competitive inhibition experiments using polypeptides provided herein were conducted to investigate their ability to inhibit binding of immune complexes to purified FcγR.
Falcon microtiter plates were coated with 1:10 dilutions of highly purified FcγIIa, FcγIIb and FcγIII and incubated for 24 hours. The plates were washed and then blocked with 5×BSA blocking solution (Alpha Diagnostic International, San Antonio, Tex.) for 24 hours. PAP immune complexes were formed as described in Example 1. PAP (100 μl) were pre-incubated with 100 μl of peptide for one hour. PAP/peptide mixtures were added to the FcγR coated plates and incubated for one hour. After washing, plates were incubated with ABTS substrate (Quidel Corp.) for 15 minutes and read at 405 nm.
Experiments with SEQ ID NO:20 were repeated. Costar microtiter plates were coated with 1:10 dilutions of highly purified FcγIIa (His 131 allele aka […]), FcγIIb and FcγIIIb and incubated for 24 hours. […] After washing, plates were incubated with ABTS substrate for 15 minutes and read at 405 nm.

[2] = ITP + 10X molar amount of peptide
[3] = ITP + 100X molar amount of peptide

For “Ala-Pro-Pro-Asp-Cys-Ala-Trp-His-Leu-Gly-Glu-Leu-Val-Trp-Cys-Thr (APPDCAWHLGELVWCT) [SEQ ID NO:20]”, which “Platelet counts, individual mice” value (mice having induced ITP; [2]) is on record?
The value was 2.03e+11 L⁻¹ and 2.61e+11 L⁻¹ and 1.97e+11 L⁻¹.

And the “Platelet counts, mean” value (mice having induced ITP; [2])?
The value was 2.203e+11 L⁻¹.

And the “Platelet counts, individual mice” value (mice having induced ITP; [3])?
Its value is 7.59e+11 L⁻¹ and 6.42e+11 L⁻¹ and 4.33e+11 L⁻¹.

What about the “Platelet counts, mean” value (mice having induced ITP; [3]) of the same substance?
Its value is 6.113e+11 L⁻¹.

What about the “Effect on induced ITP, 100× versus 10×” value (mice having induced ITP; first experiment, 100× molar) of the same substance?
Its value is “greater effect than 10× Peptide AP”.

What about the “Effect on induced ITP” value (mice having induced ITP; first experiment, Table 4, 10× and 100× molar) of the same substance?
Its value is “ameliorated induced ITP”.

And the “Amelioration of induced ITP/AITP compared with IVIg” value (mice having induced ITP; second experiment, FIG. 1, 10× molar and 100× molar, 24 hours after treatment)?
The value was “ameliorated the induced ITP/AITP better than the currently accepted treatment for ITP (IVIg)”.

What about the “Fcγ1 (read at 405 nm)” value (Fcγ1; repeat experiment, positive control 2.333) of the same substance?
Its value is 0.264.

And the “% inhibition of IC binding, Fcγ1” value (Fcγ1; versus positive control)?
The value was 89%.

And the “Overall inhibition of FcR binding to PAP (ranking in words)” value ([1]; summary of Table 2: FcγIIa, FcγIIb, FcγIIIa)?
The value was “greatest overall inhibition of FcR binding to PAP”.

And the “Inhibition of Fc receptor binding to soluble PAP immune complexes” value ([1]; summary of Table 3)?
The value was “inhibited binding of all three major classes of Fc receptor”.
